{"source": "patent US20190365728A1", "about": "“PHARMACEUTICAL COMPOSITION COMPRISING BETAHISTINE” (Otolanum AG, priority 2017, published 2019)", "key": {"[1]": {"assay": "Minor metabolites HEP and AEP in human plasma (LC-MS/MS)", "format": "in vivo", "procedure": "For the first time it was also possible to determine the two minor betahistine metabolites aminoethylpyridine (AEP) and hydroxyethylpyridine (HEP) in human plasma.\nHEP and AEP concentrations were determined using liquid chromatographic tandem mass spectrometry (SCIEX API 4000) with a validated method. HEP-d4 and AEP-d4 dihydrochloride served as internal standards. […] The limit of quantitation was 1 ng/mL in case of HEP and 10 pg/mL in case of AEP."}, "[2]": {"assay": "Single-dose and 14-day repeat-dose toxicology/toxicokinetic study of intranasal betahistine in beagle dogs", "format": "in vivo", "procedure": "Sample analysis was conducted using reversed phase chromatography."}, "[3]": {"assay": "Pharmacokinetic profile in beagle dogs after single oral, intranasal and intravenous betahistine", "format": "in vivo", "procedure": "In this study, the pharmacokinetic profile of betahistine was evaluated after a single dose administration of betahistine in male and female beagle dogs (age 5-7 months; weight of 5-11 kg, within a range of 3 kg for each sex) for three routes of administration: oral, intranasal, and intravenous.\nOn Day 1 of the study, betahistine (BH) was delivered orally at a dose of 12 mg/kg, 24 mg/kg, or 48 mg/kg. Each treatment group comprised 8 animals (4 males and 4 females). For pharmacokinetic assessment, plasma samples were collected prior to dosing, and then at 5, 10, 20 and 30 min, 1, 2, 3, 6, 24 hours after dosing.\nOn Day 8 of the study, the animals that received oral BH at a dose of 12 mg/kg were administered the test betahistine composition intranasally at a dose of 40 mg betahistine dihydrochloride; the animals that received oral BH at a dose of 24 mg/kg were administered the test betahistine composition intranasally at a dose of 80 mg betahistine dihydrochloride; and the animals that received oral BH at a dose of 48 mg/kg were administered the test betahistine composition intranasally at a dose of 120 mg betahistine dihydrochloride. The test betahistine composition was delivered intranasally in a single dose via an Aptar nasal spray pump device at a total dose level of 40, 80 and 120 mg of betahistine dihydrochloride. Plasma samples were collected prior to dosing, and then at 5, 10, 20 and 30 min, 1, 2, 3, 6, 24 hours after dosing.\nOn Day 15 of the study, the animals that received oral BH at a dose of 12 mg/kg and the test betahistine composition intranasally at a dose of 40 mg betahistine dihydrochloride were administered a bolus intravenous injection of betahistine at a dose of 0.44 mg/kg. Plasma samples were collected prior to dosing, and then at 5, 10, 20 and 30 min, 1, 2, 3, 6, 24 hours after dosing.\nBetahistine 13CD3 dihydrochloride and 2-pyridylacetic acid-D4 hydrochloride were used as respective internal standards. The calibration range for betahistine was 0.05-250 ng/mL and for 2-PAA 2.00-3000 ng/mL using a plasma sample volume of 0.50 mL.\nFor determination of betahistine, the method involved liquid-liquid extraction, for 2-PAA, the method involved protein precipitation. Plasma samples were prepared for betahistine by extraction under basic conditions with an organic solvent, then the organic phase was dried, reconstituted and transferred for LC/MS-MS analysis. […] Sample analysis was performed using reversed phase chromatography."}, "[4]": {"details": "metabolite of betahistine, background statement; cited from earlier work"}, "[5]": {"assay": "clinical", "details": "human", "procedure": "The safety and pharmacokinetic profile of intranasal betahistine with single and multiple dosing was evaluated in a single-site randomized, placebo-controlled Phase I dose-escalation trial. 72 healthy male and female subjects aged between 18 and 60 years and with a BMI of 18.5 to 30 kg/m^2 were enrolled. In one group, the subjects received single dose intranasal betahistine in four dose cohorts of 10, 20, 40 or 60 mg or multiple dose intranasal betahistine (three times daily for 3 days) in four dose cohorts of 5, 10, 20 or 40 mg (double blind). Subjects received first the single dose and then, following a wash-out period, the multiple doses with the exception of the 5 mg and 60 mg doses which were tested only under one dose regimen. For reference purposes, another group of subjects received single dose oral betahistine in four dose cohorts at 48, […], 192 or 384 mg (single blind).\nWith each actuation of the nasal spray, 100 μL were delivered (1 actuation at 50 mg/mL for 5 mg and at 200 mg/mL for 20 mg, respectively; 2 actuations at 50 mg/mL for 10 mg and at 200 mg/mL for 40 mg, respectively, into each nostril; 3 actuations at 200 mg/mL for 60 mg with 2 into one nostril and 1 into the other) while the subject was in an upright position.\nSerial blood samples were collected at various time points, starting at pre-dose and over a maximum of 72 hours following dosing.\nAll plasma samples were stored at −95 to −65° C. until all samples had been collected and sent in two separate shipments for analysis."}, "[6]": {"assay": "Relative bioavailability of intranasal vs oral betahistine in humans (Example 3 vs Barak et al.)", "format": "in vivo", "details": "human", "procedure": "For the calculation of the relative bioavailability of intranasal betahistine compared to peroral betahistine, the area under the concentration-time curve (AUC) determined in Example 3 was compared to the AUC determined in a study with oral betahistine in healthy volunteers described in Barak et al. (Journal of Psychopharmacology, 2016, Vol. 30(3) 237-241). In brief, in this study, forty-eight healthy women were recruited and randomized to receive per os (i.e. orally) either betahistine 144 mg/day (48 mg t.i.d.) or matching placebo for 4 weeks. Their mean weight was 60.2 kg in the active-treated group (n=24) and 59.8 kg in the placebo group (n=24). Study medication (betahistine or matching placebo) was administered at least 30 minutes prior to eating. On Day 8, blood samples of 6 mL each were collected at 8 am, and 30, 60, 150 and 300 minutes thereafter. Plasma concentrations of betahistine and its metabolite 2-PAA were determined by high-performance liquid chromatography."}, "[7]": {"assay": "Single ascending-dose clinical trial of intranasal betahistine in healthy volunteers: safety and plasma pharmacokinetics", "details": "human; for tmax: median (range)", "quoted_text": "The safety and pharmacokinetic profile of intranasal betahistine was further evaluated in a double-blind, randomized, placebo-controlled, single ascending-dose clinical trial involving a total of 32 healthy male and female volunteers. The main inclusion criteria were that subjects had to be aged 18-45 years and show a body mass index within the range of 18-30 kg/m^2. Subjects were required to fast for 8 hours prior to study drug administration and for 2 hours post-dose.\nThe betahistine was supplied as a 50 and 200 mg/mL solution in a HDPE bottle and spray pump pack (Aptar Classic Line) that delivers an accurate 100 μL per actuation. The study drug was delivered into the right nostril of subjects while they were in a supine position. For the 5 and 20 mg doses, one application of 50 and 200 mg/mL, respectively, was needed, whereas for the 10 and 40 mg doses, two applications of 50 and 200 mg/mL were required.\nSerial blood samples were collected through 24 hours, following dosing on Day 1, at Day 4 and Day 7 to determine concentrations of betahistine and its main metabolite, 2-PAA in plasma. Plasma samples were assayed for BH content using validated procedures and methods. Blood samples (6 mL) were collected into tubes containing K2EDTA and were centrifuged at approximately 2000 g for 10 minutes at +4° C. and the resultant plasma transferred into 2 clean, labelled 2 mL cryovials. All plasma samples were stored at −70° C. or below until all samples had been collected and sent as a single batch for analysis. Aliquot 1 and 2 were sent as separate shipments. Concentrations were determined using liquid chromatographic tandem mass spectrometry (LC-MS/MS; SCIEX API 5000 for betahistine and SCIEX API 4000 for 2-PAA) with a validated method. Betahistine-^13CD3 dihydrochloride and 2-PAA-D4 hydrochloride served as internal standards. The standard calibration range—using a plasma sample volume of 0.2 and 0.1 mL, respectively—for betahistine was 10 to 800 pg/mL and for 2-PAA it was 2 to 2000 ng/mL. The limit of quantitation was 10 pg/mL for betahistine and 2.0 ng/mL for 2-PAA.\nIn case of betahistine, the method involved a liquid-liquid extraction; in case of 2-PAA it involved protein precipitation. For betahistine, plasma samples were extracted under basic conditions with an organic solvent; the organic phase was dried and reconstituted in reconstitution solvent. Approximately 0.120 mL of the aqueous layer was transferred into polypropylene vials for LC-MS/MS analysis. For 2-PAA plasma samples were precipitated with a mixture of organic solvents, supernatant was diluted and 0.120 mL was transferred into polypropylene vials for LC-MS/MS analysis. Sample analysis was conducted using reversed phase chromatography.\nFor each subject who completed the study, plasma concentration-time data of betahistine and 2-PAA were used for the calculation of the following pharmacokinetic parameters:\nDose normalized parameters Cmax/Dose and AUC/Dose were also calculated."}}, "note": "Marks after values point to notes of the source that are not given here.", "data": [{"smiles": "NCCc1ccccn1", "note": "[AEP, aminoethylpyridine]", "values": [{"measurement": "plasma concentration", "setting": "[1]; AEP, human, intranasal betahistine 60 mg", "result": "barely detectable"}]}, {"smiles": "O=C(O)Cc1ccccn1", "note": "[Variant 2-PAA, 2-pyridylacetic acid]", "values": [{"measurement": "last measurable values", "setting": "[2]; both, beagle, dog, in vivo", "result": 24, "unit": "hours post-dose"}, {"measurement": "Tmax, median (min-max)", "setting": "[3]; male, beagle, dog, in vivo", "result": "0.13 (0.08-0.33) hr"}, {"measurement": "pharmacological activity", "setting": "[4]", "result": "no pharmacological activity"}]}, {"smiles": "OCCc1ccccn1", "note": "[HEP, hydroxyethylpyridine]", "values": [{"measurement": "median tmax", "setting": "[1]; in vivo", "result": 15, "unit": "min"}]}, {"smiles": "CNCCc1ccccn1", "note": "[betahistine]", "values": [{"measurement": "apparent half-life", "setting": "[5]; both, in vivo", "result": "less than 1 h"}, {"measurement": "exposure AUC0-6 unadjusted for dose, intranasal vs oral 48 mg", "setting": "[5]; both, in vivo", "result": "5-29 fold"}, {"measurement": "nasal pain, share of administrations", "setting": "[5]; both, in vivo", "result": 4, "unit": "%"}, {"measurement": "post-nasal drip, share of administrations", "setting": "[5]; both, in vivo", "result": 5, "unit": "%"}, {"measurement": "runny nose, share of administrations", "setting": "[5]; both, in vivo", "result": 6, "unit": "%"}, {"measurement": "time of maximum concentrations", "setting": "[5]; both, in vivo", "result": "5 to 20", "unit": "min"}, {"measurement": "accumulation over time", "setting": "[5]; both, in vivo, 3 days", "result": "No accumulation"}, {"measurement": "time of maximum concentrations", "setting": "[5]; both, in vivo, po", "result": "15 to 30", "unit": "min"}, {"measurement": "tmax", "setting": "[5]; both, in vivo, tmax, Median (range)", "result": 15, "unit": "min"}, {"measurement": "dose up to which safety and tolerability could be shown", "setting": "[5]; intranasal multiple dosing three times daily over three days", "result": "up to 40 mg"}, {"measurement": "dose up to which safety and tolerability could be shown", "setting": "[5]; intranasal single doses", "result": "up to 60 mg"}, {"measurement": "tolerability", "setting": "[2]; beagle dogs, intranasal, single dose 4-80 mg and 14-day repeat dose 12-240 mg/day", "result": "well tolerated"}, {"measurement": "body weights, clinical pathology and gross necropsy findings", "setting": "[2]; both, beagle, dog, in vivo", "result": "unremarkable"}, {"measurement": "microscopic findings", "setting": "[2]; both, beagle, dog, in vivo", "result": "No adverse treatment-related microscopic findings"}, {"measurement": "decline of plasma concentration", "setting": "[2]; both, beagle, dog, in vivo, 1 h", "result": "more than 90%"}, {"measurement": "salivation", "setting": "[3]; both, beagle, dog, in vivo", "result": "noted in most animals"}, {"measurement": "sneezing, animals affected", "setting": "[3]; both, beagle, dog, in vivo", "result": "2/8"}, {"measurement": "tolerability", "setting": "[3]; dogs, single intranasal 40-120 mg", "result": "well tolerated"}, {"measurement": "Cmax", "setting": "[3]; female, beagle, dog, in vivo, iv, 0.44 mg/kg", "result": "4.37 ± 8.84", "unit": "ng/mL"}, {"measurement": "relative bioavailability of oral vs. intranasal administration", "setting": "[6]; Barak et al. oral vs Example 3 intranasal", "result": "approximately 2.4%"}, {"measurement": "bioavailability intranasal relative to oral", "setting": "[6]; Example 3 single intranasal 5-40 mg vs Barak et al. oral 48 mg", "result": "20-40 times"}, {"measurement": "Rel. Bioavail. intranasal relative to oral", "setting": "[6]; intranasal 40 mg vs oral 48 mg (Barak et al.)", "result": 41.1}, {"measurement": "peak concentration in plasma", "setting": "[7]; betahistine, single intranasal 20 mg", "result": 4.1, "unit": "ng/mL"}, {"measurement": "tmax", "setting": "[7]; single intranasal 5 mg", "result": "0.208 (0.08-0.33) hr"}, {"measurement": "t1/2", "setting": "[7]; single intranasal 10 mg, mean, n=3", "result": "0.883 ^a hr"}, {"measurement": "tmax", "setting": "[7]; single intranasal 10 mg", "result": "0.167 (0.08-0.17) hr"}, {"measurement": "tmax", "setting": "[7]; single intranasal 40 mg", "result": "0.125 (0.08-0.27) hr"}]}]}
